Converted amounts (≈) assume the structure as drawn.
Key:
Assay type in all cases: functional
OVCAR-3 = experiment: Cytotoxicity against human OVCAR-3 cells by SRB assay; details: read-out: ED50 (the source's name)
SF-295 = experiment: Cytotoxicity against human SF295 cells by SRB assay; details: read-out: ED50 (the source's name)
KM-20L2 = experiment: Cytotoxicity against human KM20L2 cells by SRB assay; details: read-out: ED50 (the source's name)
SK-MEL-5 = experiment: Cytotoxicity against human SK-MEL-5 cells by SRB assay; details: read-out: ED50 (the source's name)
A498 = experiment: Cytotoxicity against human A498 cells by SRB assay; details: read-out: ED50 (the source's name)
NCI-H460 = experiment: Cytotoxicity against human H460 cells by SRB assay; details: read-out: ED50 (the source's name)
HCT-116 = experiment: Cytotoxicity against human HCT116 cells by SRB assay
U-251 = experiment: Cytotoxicity against human U251 cells by SRB assay
A549 = experiment: Cytotoxicity against human A549 cells by SRB assay
COLO 205 = experiment: Cytotoxicity against human COLO205 cells by SRB assay
K562 = experiment: Cytotoxicity against human K562 cells by SRB assay
786-0 = experiment: Cytotoxicity against human 786-0 cells by SRB assay
HT-29 = experiment: Cytotoxicity against human HT-29 cells by SRB assay
SF-539 = experiment: Cytotoxicity against human SF539 cells by SRB assay
SNB-75 = experiment: Cytotoxicity against human SNB75 cells by SRB assay
OVCAR-5 = experiment: Cytotoxicity against human OVCAR5 cells by SRB assay
NCI-H522 = experiment: Cytotoxicity against human NCI-H522 cells by SRB assay
MDA-MB-231 = experiment: Cytotoxicity against human MDA-MB-231 cells by SRB assay
HOP-92 = experiment: Cytotoxicity against human HOP92 cells by SRB assay
PC-3 = experiment: Cytotoxicity against human PC3 cells by SRB assay
OVCAR-8 = experiment: Cytotoxicity against human OVCAR8 cells by SRB assay
NCI-H226 = experiment: Cytotoxicity against human NCI-H226 cells by SRB assay
[1] = Cytotoxicity against human Hs 578T cells by SRB assay
[2] = Cytotoxicity against human MCF7/ADR cells by SRB assay; details: NCI/ADR-RES

| Structure (SMILES) | EC50 (OVCAR-3) [µg/mL] | EC50 (SF-295) [µg/mL] | EC50 (KM-20L2) [µg/mL] | EC50 (SK-MEL-5) [µg/mL] | EC50 (A498) [µg/mL] | EC50 (NCI-H460) [µg/mL] | other results |
| --- | --- | --- | --- | --- | --- | --- | --- |
| NC1=N/C(=C2/CCNC(=O)c3[nH]ccc32)C(=O)N1 [DEBROMOHYMENIALDISINE] | 1.8 (≈ 7.34 µM) | 38.9 (≈ 159 µM) | 8.5 (≈ 34.7 µM) | 5.7 (≈ 23.2 µM) | 24.7 (≈ 101 µM) | 42 (≈ 171 µM) | – |
| NC1=N[C@]23CCCN2C(=O)c2cc(Br)c(Br)n2[C@@H]3N1 [DIBROMOPHAKELLIN] | 15.7 (≈ 40.4 µM) | 18.8 (≈ 48.3 µM) | 20.1 (≈ 51.7 µM) | 17 (≈ 43.7 µM) | 17.8 (≈ 45.8 µM) | 22 (≈ 56.5 µM) | – |
| O=C1N[C@H]2n3c(cc(Br)c3Br)C(=O)N3CCC[C@]23N1 [DIBROMOPHAKELLSTATIN] | 0.46 (≈ 1.18 µM) | 1.5 (≈ 3.85 µM) | 0.11 (≈ 0.282 µM) | 0.11 (≈ 0.282 µM) | 0.21 (≈ 0.538 µM) | 0.62 (≈ 1.59 µM) | GI50 (HCT-116): 575 nM; GI50 (U-251): 589 nM; GI50 (A549): 676 nM; GI50 (COLO 205): 794 nM; GI50 (K562): 692 nM; GI50 (786-0): 603 nM; GI50 (HT-29): 631 nM; GI50 (SF-539): 617 nM; GI50 (SNB-75): 776 nM; GI50 (OVCAR-5): 676 nM; GI50 (NCI-H522): 240 nM; GI50 (MDA-MB-231): 724 nM; GI50 (HOP-92): 490 nM; GI50 (PC-3): 708 nM; GI50 (OVCAR-8): 120 nM; GI50 (NCI-H226): 871 nM; GI50 [1]: 871 nM; GI50 [2]: 525 nM |

— ChEMBL document CHEMBL1145710, “Antineoplastic agents. 362. Isolation and X-ray crystal structure of dibromophakellstatin from the Indian ocean sponge Phakellia mauritiana” (1997)
